This passage reports IC50 results from patent US20240207300A1, “COMBINATION THERAPIES INCLUDING MYT1 INHIBITORS” (Repare Therapeutics Inc., priority 2021, published 2024).

Each structure is given as a SMILES string. A value given as a limit tells only on which side of the number the result lay.

Chain of recombinant human Myt1 (Q99640 whole entry): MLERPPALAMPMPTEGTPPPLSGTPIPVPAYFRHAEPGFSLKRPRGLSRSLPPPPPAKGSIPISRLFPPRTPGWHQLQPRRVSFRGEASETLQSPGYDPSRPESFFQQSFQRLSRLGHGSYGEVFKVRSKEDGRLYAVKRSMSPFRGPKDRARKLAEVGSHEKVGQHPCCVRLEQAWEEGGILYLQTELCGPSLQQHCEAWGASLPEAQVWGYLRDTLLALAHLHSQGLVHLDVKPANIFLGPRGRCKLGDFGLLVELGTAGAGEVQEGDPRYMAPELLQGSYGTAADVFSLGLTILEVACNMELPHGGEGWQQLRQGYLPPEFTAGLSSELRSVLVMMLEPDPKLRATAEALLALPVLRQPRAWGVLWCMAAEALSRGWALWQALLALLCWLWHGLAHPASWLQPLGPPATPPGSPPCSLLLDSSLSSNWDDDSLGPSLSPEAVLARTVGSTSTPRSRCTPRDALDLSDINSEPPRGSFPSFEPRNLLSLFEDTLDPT

This experiment deals with recombinant human Myt1 (Homo sapiens (Human), UniProt Q99640). The experiment is described as follows: Recombinant human Myt1 kinase ADP-Glo enzymatic assay. The class given is biochemical. The following applies: recombinant human Myt1 18 nM, ATP 10 μM. How it is done:
Detection of Myt1 kinase activity utilized a recombinant human Myt1 kinase assay measuring the hydrolysis of ATP using a commercially available ADP-Glo Assay (ADP-Glo™ Kinase Assay from Promega, 10 000 assays, #V9102). […] After this, 5 μL of compounds (diluted in reaction buffer to 0.5% DMSO) was added to the microplate and the plate was spun briefly and incubated at 22° C. for 15 minutes. Ultra-Pure Adenosine Triphosphate (ATP) solution (ADP-Glo kit from Promega) was diluted in reaction buffer and 5 μL was added to the microplate, spun down briefly and incubated for 60 minutes at 30° C. […] After the 60-minute incubation, 15 μL of ADP-Glo reagent was added and the plate was spun briefly and sealed and incubated in the dark for 40 minutes at 22° C. […] Luminescence was read using the Envision (250 ms integration). The IC50 and the % max inhibition were calculated for each inhibitor compound tested.
Usually IC50 stands for the concentration at which inhibition is half-maximal. As for `Cc1ccc(O)c(C)c1-n1c(N)c(C(N)=O)c2nc(-c3cn(C)cn3)cnc21` [Compound 76], the IC50 is under 10 nM.

Take `Cc1ccc(O)c(C)c1-n1c(N)c(C(N)=O)c2ncc(C#CC(C)O)nc21` (centres unmarked) [Compound 241]: the IC50 came to 24 nM.

On to `Cc1ccc2c(C(N)=O)c(N)n(-c3c(C)ccc(O)c3C)c2n1` [Compound 193], for which the IC50 was under 10 nM.

As for `Cc1ccc(O)c(C)c1-n1c(N)c(C(N)=O)c2ncc(C#CC(C)O)nc21` (centres unmarked) [Compound 229], the concentration for half-maximal inhibition (IC50) amounted to 52 nM.

For `Cc1ccc(O)c(C)c1-n1c(N)c(C(N)=O)c2nc(N3CCC(C(=O)N(C)C)CC3)cnc21` [Compound 80], the IC50 is under 10 nM.
